Key:
Type in all cases: in vivo
Amaranthus retroflexus = assay: Pre-emergence herbicidal efficacy, AMARE; details: Table B2, application rate 320 g/ha, scored visually after about 3 weeks vs untreated controls
Excerpt: (§1) C.1 Pre-Emergence Herbicidal Action and Crop Plant Compatibility
(§2) Seeds of monocotyledonous and dicotyledonous weed plants and crop plants are placed in plastic or organic planting pots and covered with soil. The compounds of the invention, formulated in the form of wettable powders (WP) or as emulsion concentrates (EC), are then applied onto the surface of the covering soil as aqueous suspension or emulsion with addition of 0.5% additive at a water application rate of […] (converted). After the treatment, the pots are placed in a greenhouse and kept under good growth conditions for the trial plants. After about 3 weeks, the effect of the preparations is scored visually in comparison with untreated controls as percentages. For example, 100% activity=the plants have died, 0% activity=like control plants.
(§3) ABUTH: Abutilon theophrasti ALOMY: Alopecurus myosuroides AMARE: Amaranthus retroflexus AVEFA: Avena fatua CYPES: Cyperus esculentus ECHCG: Echinochloa crus-galli LOLMU: Lolium multiflorum MATIN: Matricaria inodora PHBPU: Ipomoea purpurea POLCO: Polygonum convolvulus SETVI: Setaria viridis STEME: Stellaria media VERPE: Veronica persica VTOTR: Viola tricolor

Matricaria inodora = assay: Pre-emergence herbicidal efficacy, MATIN
Excerpt: as §1, §2, §3

Polygonum convolvulus = assay: Pre-emergence herbicidal efficacy, POLCO; details: Table B2, application rate 320 g/ha, scored visually after about 3 weeks vs untreated controls
Excerpt: as §1, §2, §3

Stellaria media = assay: Pre-emergence herbicidal efficacy, STEME
Excerpt: as §1, §2, §3

Viola tricolor = assay: Pre-emergence herbicidal efficacy, VIOTR
Excerpt: as §1, §2, §3

Veronica persica = assay: Pre-emergence herbicidal efficacy, VERPE; details: Table B2, application rate 320 g/ha, scored visually after about 3 weeks vs untreated controls
Excerpt: as §1, §2, §3

[1] = Table B2, application rate 320 g/ha, scored visually after about 3 weeks vs untreated controls
[2] = application rate 320 g/ha, scored visually after about 3 weeks

| SMILES | Herbicidal efficacy against AMARE (Amaranthus retroflexus) [%] | Herbicidal efficacy against MATIN (Matricaria inodora; [1]) [%] | Herbicidal efficacy against MATIN (Matricaria inodora; [2]) [%] | Herbicidal efficacy against POLCO (Polygonum convolvulus) [%] | Herbicidal efficacy against STEME (Stellaria media; [1]) [%] | Herbicidal efficacy against STEME (Stellaria media; [2]) [%] | Herbicidal efficacy against VIOTR (Viola tricolor; [1]) [%] | Herbicidal efficacy against VIOTR (Viola tricolor; [2]) [%] | Herbicidal efficacy against VERPE (Veronica persica) [%] |
| --- | --- | --- | --- | --- | --- | --- | --- | --- | --- |
| CN1C(=O)CCn2nc(NC3CCCc4ccccc43)nc21 (stereo not shown) [Example I-278] | 100 | 100 | 80 | 100 | 100 | 80 | 100 | 90 | 100 |
| Cc1ccc2c(c1)[C@H](Nc1nc3n(n1)CCCS3(=O)=O)CCO2 [Example I-378] | 100 | 100 |  | 100 | 100 |  | 100 |  | 100 |
| CC1CCc2ccccc2C1Nc1nc2n(n1)CCCC[S+]2[O-] (stereo not shown) [Example I-373] | 100 | 100 |  | 100 | 100 |  | 100 |  | 100 |
| Cc1ccc2c(c1)C(Nc1nc3n(n1)CCCN3S(C)(=O)=O)CCC2 (stereo not shown) [Example I-329] | 100 | 100 |  | 100 | 100 |  | 100 |  | 100 |
| [O-][S+]1CCCCn2nc(NC3CCc4ccccc43)nc21 (stereo not shown) [Example I-250] | 100 | 100 | 100 | 100 | 100 | 100 | 100 | 100 | 90 |
| Cc1ccc2c(c1)C(Nc1nc3n(n1)CCCS3(=O)=O)CCC2 (stereo not shown) [Example I-239] | 100 | 100 |  | 100 | 100 |  | 100 |  | 100 |
| Cc1ccc2c(c1)[C@H](Nc1nc3n(n1)CCN(S(=O)(=O)C1CCCC1)C3)CCC2 [Example I-201] | 100 | 90 |  | 100 | 100 |  | 100 |  | 100 |
| O=S(=O)(C1CC1)N1CCCn2nc(NC3CCCc4ccccc43)nc21 (stereo not shown) [Example I-333] | 100 |  |  | 100 | 100 |  | 100 |  | 100 |
| Cc1ccc2c(c1)[C@H](Nc1nc3n(n1)CCN(C(=O)C1CCCCC1)C3)CCC2 [Example I-187] | 100 | 90 |  | 100 | 100 |  | 100 |  | 100 |
| Cc1ccc2c(c1)[C@H](Nc1nc3n(n1)CCN(S(=O)(=O)c1ccccc1Cl)C3)CCC2 [Example I-203] | 100 | 90 |  | 100 | 100 |  | 100 |  | 100 |
| Cc1ccc2c(c1)[C@H](Nc1nc3n(n1)CCN(S(=O)(=O)C1CCCC1)C3)[C@@H](C)C2 [Example I-193] | 100 | 90 |  | 100 | 100 |  | 100 |  | 100 |
| Cc1ccc2c(c1)C(Nc1nc3n(n1)CCC(=O)N3C(C)C)CCC2 (stereo not shown) [Example I-316] |  | 100 | 100 | 100 | 100 | 100 | 100 | 100 | 100 |
| CC1CCc2ccccc2C1Nc1nc2n(n1)CCC[S+]2[O-] (stereo not shown) [Example I-362] | 100 | 100 |  | 100 | 100 |  | 100 |  | 100 |
| Cc1ccc2c(c1)C(Nc1nc3n(n1)CCCN3S(C)(=O)=O)CC2 (stereo not shown) [Example I-301] | 100 | 100 |  | 80 | 100 |  | 100 |  | 90 |
| O=S1(=O)CCCCn2nc(NC3CCCc4ccccc43)nc21 (stereo not shown) [Example I-253] | 100 | 100 | 100 | 100 | 100 | 100 | 100 | 100 | 100 |
| c1ccc2c(c1)CCC[C@H]2Nc1nc2n(n1)CCCS2 [Example I-349] | 100 | 100 |  | 100 | 100 |  | 100 |  | 100 |
| Cc1ccc2c(c1)C(Nc1nc3n(n1)CCCS3)CCC2 (racemic) [Example I-207] | 100 | 100 |  | 100 | 100 |  | 100 |  | 100 |
| O=S1(=O)CCCCn2nc(N[C@@H]3CCc4ccccc43)nc21 [Example I-364, N-[(1R)-indan-1-yl]-4,4-dioxo-5,6,7,8-tetrahydro-[1,2,4]triazolo[5,1-b][1,3]thiazepin-2-amine] | 100 | 100 |  | 100 | 100 |  | 100 |  | 100 |
| [O-][S+]1CCCn2nc(N[C@@H]3CCCc4ccccc43)nc21 (stereo partly shown) [Example I-361] | 100 | 100 |  | 100 | 100 |  | 100 |  | 100 |

Source: patent US20200331904A1, “3-AMINO-[1,2,4]-TRIAZOLE DERIVATIVES AND THEIR USE FOR CONTROLLING UNDESIRED PLANT GROWTH” (Bayer CropScience Aktiengesellschaft, priority 2017, published 2020)
